Measurements reported in patent publication US10894784B2, “Heteroarylbenzimidazole compounds” (BAYER PHARMA AKTIENGESELLSCHAFT, priority 2015, dated 2021).

Target: TBK1 (Homo sapiens (Human), UniProt Q9UHD2)
Assay: TBK1 low ATP kinase assay (in vitro assay 1)
Format: biochemical
Conditions: in vitro assay 1, read-out: TBK1 low ATP kinase assay IC50

Chain of TBK1 (Q9UHD2 whole entry): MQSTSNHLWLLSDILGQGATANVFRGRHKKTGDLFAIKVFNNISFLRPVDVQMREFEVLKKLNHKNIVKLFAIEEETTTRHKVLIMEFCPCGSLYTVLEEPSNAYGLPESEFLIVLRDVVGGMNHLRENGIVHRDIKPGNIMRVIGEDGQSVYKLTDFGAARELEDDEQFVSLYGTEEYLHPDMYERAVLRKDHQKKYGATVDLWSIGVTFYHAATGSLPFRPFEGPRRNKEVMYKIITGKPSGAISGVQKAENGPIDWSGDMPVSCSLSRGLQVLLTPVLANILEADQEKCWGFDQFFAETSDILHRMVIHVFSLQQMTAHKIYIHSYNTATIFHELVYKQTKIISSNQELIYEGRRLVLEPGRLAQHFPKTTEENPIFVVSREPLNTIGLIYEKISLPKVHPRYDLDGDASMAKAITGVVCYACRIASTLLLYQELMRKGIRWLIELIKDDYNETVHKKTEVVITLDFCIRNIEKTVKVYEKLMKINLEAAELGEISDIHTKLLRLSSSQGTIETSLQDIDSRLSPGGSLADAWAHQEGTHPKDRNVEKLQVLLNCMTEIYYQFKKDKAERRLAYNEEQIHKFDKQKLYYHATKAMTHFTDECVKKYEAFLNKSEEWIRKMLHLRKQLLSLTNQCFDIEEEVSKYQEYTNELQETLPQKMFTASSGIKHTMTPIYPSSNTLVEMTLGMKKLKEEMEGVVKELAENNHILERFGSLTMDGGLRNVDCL

Row | IC50 | Structure (SMILES)
1 | 19 nM | CC(c1ccnc(Nc2nc3ccc(-c4cnn(C(C)C5CC5)c4)cc3[nH]2)c1)N1CCN(C(=O)CC(F)(F)F)CC1 (single isomer, unassigned) [Example 74.02, 1-{4-[(1R or 1S)-1-{2-[(6-{1-[(1RS)-1-cyclopropylethyl]-1H-pyrazol-4-yl}-1H-benzimidazol-2-yl)amino]pyridin-4-yl}ethyl]piperazin-1-yl}-3,3,3-trifluoropropan-1-one]
2 | 3.3 nM | CC(C)Nc1cc(-c2ccc3nc(Nc4cc(CN5CCN(C(=O)CC(F)(F)F)CC5)ccn4)[nH]c3c2)ncn1 [Example 154.02, 3,3,3-trifluoro-1-(4-{[2-({6-[6-(propan-2-ylamino)pyrimidin-4-yl]-1H-benzimidazol-2-yl}amino)pyridin-4-yl]methyl}piperazin-1-yl)propan-1-one]
3 | 21.1 nM | CC(c1ccnc(Nc2nc3ccc(-c4cc(OCC(F)(F)C(F)(F)F)ncn4)cc3[nH]2)c1)N1CCN(C(=O)C2CC2)CC1 (single isomer, unassigned) [Example 166.03, cyclopropyl(4-{(1R or 1S)-1-[2-({6-[6-(2,2,3,3,3-pentafluoropropoxy)pyrimidin-4-yl]-1H-benzimidazol-2-yl}amino)pyridin-4-yl]ethyl}piperazin-1-yl)methanone]
4 | 1.1 nM | COc1c(-c2ccc3nc(Nc4cc(C(C)N5CCN(C(=O)C6CC6)CC5)ccn4)[nH]c3c2)ncnc1N1CC(F)(F)C1 (single isomer, unassigned) [Example 113.03, cyclopropyl(4-{(1R or 1S)-1-[2-({6-[6-(3,3-difluoroazetidin-1-yl)-5-methoxypyrimidin-4-yl]-1H-benzimidazol-2-yl}amino)pyridin-4-yl]ethyl}piperazin-1-yl)methanone]
5 | 3.06 nM | Cc1cc(-c2ccc3nc(Nc4cc(C(C)N5CCN(C(=O)C6CC6)CC5)ccn4)[nH]c3c2)ncn1 (single isomer, unassigned) [Example 30.03.03.A, cyclopropyl{4-[(1R or 1S)-1-(2-{[6-(6-methylpyrimidin-4-yl)-1H-benzimidazol-2-yl]amino}pyridin-4-yl)ethyl]piperazin-1-yl}methanone]
6 | 5.9 nM | COc1c(-c2ccc3nc(Nc4cc(C(C)N5CCN(C(=O)C6CC6)CC5)ccn4)[nH]c3c2)ncnc1N(C)C (single isomer, unassigned) [Example 107.02.02, cyclopropyl(4-{(1R or 1S)-1-[2-({6-[6-(dimethylamino)-5-methoxypyrimidin-4-yl]-1H-benzimidazol-2-yl}amino)pyridin-4-yl]ethyl}piperazin-1-yl)methanone]
7 | 11.5 nM | COc1cncnc1-c1ccc2nc(Nc3cc(C(C)N4CCN(C(=O)CC5CC5)CC4)ccn3)[nH]c2c1 (racemic) [Example 35.02.02, (rac)-2-cyclopropyl-1-{4-[1-(2-{[6-(5-methoxypyrimidin-4-yl)-1H-benzimidazol-2-yl]amino}pyridin-4-yl)ethyl]piperazin-1-yl}ethanone]
8 | 67 nM | Cc1noc(-c2ccc3nc(Nc4cc(CN5CCN(C(=O)CC6CC6)C[C@H]5C)ccn4)[nH]c3c2)n1 [Example 16.03.03, 2-cyclopropyl-1-{(3R)-3-methyl-4-[(2-{[6-(3-methyl-1,2,4-oxadiazol-5-yl)-1H-benzimidazol-2-yl]amino}pyridin-4-yl)methyl]piperazin-1-yl}ethanone]
9 | 0.96 nM | O=C(C1CC1)N1CCN(Cc2ccnc(Nc3nc4ccc(-c5cc(NC6CCC6)ncn5)cc4[nH]3)c2)CC1 [Example 152.03, (4-{[2-({6-[6-(cyclobutylamino)pyrimidin-4-yl]-1H-benzimidazol-2-yl}amino)pyridin-4-yl]methyl}piperazin-1-yl)(cyclopropyl)methanone]
10 | 72.2 nM | COc1nnc(Cl)cc1-c1ccc2nc(Nc3cc(CN4CCN(C(=O)C5CC5)CC4)ccn3)[nH]c2c1 [Example 46.02, {4-[(2-{[6-(6-chloro-3-methoxypyridazin-4-yl)-1H-benzimidazol-2-yl]amino}pyridin-4-yl)methyl]piperazin-1-yl}(cyclopropyl)methanone]
11 | 59.1 nM | Cc1nc(Cl)cc(-c2ccc3nc(Nc4cc(CN5CCN(C(=O)OC(C)(C)C)CC5)ccn4)[nH]c3c2)n1 [Example 186.01, tert-butyl 4-[(2-{[6-(6-chloro-2-methylpyrimidin-4-yl)-1H-benzimidazol-2-yl]amino}pyridin-4-yl)methyl]piperazine-1-carboxylate]
12 | 1.4 nM | COc1c(-c2ccc3nc(Nc4cc(C(C)N5CCN(C(=O)CC(F)(F)F)CC5)ccn4)[nH]c3c2)ncnc1N1CCCC1 (single isomer, unassigned) [Example 112.03, 3,3,3-trifluoro-1-(4-{(1R or 1S)-1-[2-({6-[5-methoxy-6-(pyrrolidin-1-yl)pyrimidin-4-yl]-1H-benzimidazol-2-yl}amino)pyridin-4-yl]ethyl}piperazin-1-yl)propan-1-one]
13 | 217 nM | COc1cc(-c2ccc3nc(Nc4cc(CN5CCN(C(=O)C6CC6)CC5)ccn4)[nH]c3c2OCC(C)C)ccn1 [Example 49.01, cyclopropyl{4-[(2-{[6-(2-methoxypyridin-4-yl)-7-(2-methylpropoxy)-1H-benzimidazol-2-yl]amino}pyridin-4-yl)methyl]piperazin-1-yl}methanone]
14 | 29 nM | CC(=O)c1cc(-c2ccc3nc(Nc4cc(CN5CCN(C(=O)CC(F)(F)F)CC5)ccn4)[nH]c3c2)ncn1 [Example 97.03, 1-{4-[(2-{[6-(6-acetylpyrimidin-4-yl)-1H-benzimidazol-2-yl]amino}pyridin-4-yl)methyl]piperazin-1-yl}-3,3,3-trifluoropropan-1-one]
15 | 180 nM | CC(C)(C)OC(=O)N1CCN(Cc2ccnc(Nc3nc4ccc(-c5c(F)cncc5Cl)cc4[nH]3)c2)CC1 [Example 132.01, tert-butyl 4-[(2-{[6-(3-chloro-5-fluoropyridin-4-yl)-1H-benzimidazol-2-yl]amino}pyridin-4-yl)methyl]piperazine-1-carboxylate]
16 | 7.67 nM | COc1cncnc1-c1ccc2nc(Nc3cc(C(C)N4CCN(C(=O)CC(F)(F)F)CC4)ccn3)[nH]c2c1 (racemic) [Example 35.02.01, (rac)-3,3,3-trifluoro-1-{4-[1-(2-{[6-(5-methoxypyrimidin-4-yl)-1H-benzimidazol-2-yl]amino}pyridin-4-yl)ethyl]piperazin-1-yl}propan-1-one]
17 | 1.3 nM | CC(c1ccnc(Nc2nc3ccc(-c4cnn(CC5CC5(F)F)c4)cc3[nH]2)c1)N1CCN(C(=O)CC(F)(F)F)CC1 (single isomer, unassigned) [Example 55.02.02, 1-{4-[(1R or 1S)-1-(2-{[6-(1-{[(1R or IS)-2,2-difluorocyclopropyl]methyl}-1H-pyrazol-4-yl)-1H-benzimidazol-2-yl]amino}pyridin-4-yl)ethyl]piperazin-1-yl}-3,3,3-trifluoropropan-1-one]
18 | 124 nM | O=C(CC(F)(F)F)N1CCN(Cc2ccnc(Nc3nc4ccc(-c5cnc(Cl)nc5)cc4[nH]3)c2)CC1 [Example 45.02.01, 1-{4-[(2-{[6-(2-chloropyrimidin-5-yl)-1H-benzimidazol-2-yl]amino}pyridin-4-yl)methyl]piperazin-1-yl}-3,3,3-trifluoropropan-1-one]
19 | 70.9 nM | Cc1cc(-c2ccc3nc(Nc4cc(CN5CCN(C(=O)C6CCC6)CC5)ccn4)[nH]c3c2)ccn1 [Example 01.05, cyclobutyl{4-[(2-{[6-(2-methylpyridin-4-yl)-1H-benzimidazol-2-yl]amino}pyridin-4-yl)methyl]piperazin-1-yl}methanone]
20 | 8.27 nM | COc1c(NC2CCC2)ncnc1-c1ccc2nc(Nc3cc(C(C)N4CCN(C(=O)CC(F)(F)F)CC4)ccn3)[nH]c2c1 (single isomer, unassigned) [Example 114.02, 1-(4-{(1R or 1S)-1-[2-({6-[6-(cyclobutylamino)-5-methoxypyrimidin-4-yl]-1H-benzimidazol-2-yl}amino)pyridin-4-yl]ethyl}piperazin-1-yl)-3,3,3-trifluoropropan-1-one]
21 | 9.2 nM | COc1c(NCC2CC2)ncnc1-c1ccc2nc(Nc3cc(CN4CCN(C(=O)OC(C)(C)C)CC4)ccn3)[nH]c2c1 [Example 109.01.01, tert-butyl 4-({2-[(6-{6-[(cyclopropylmethyl)amino]-5-methoxypyrimidin-4-yl}-1H-benzimidazol-2-yl)amino]pyridin-4-yl}methyl)piperazine-1-carboxylate]
22 | 4.68 nM | CCOc1nccc(-c2ccc3nc(Nc4cc(C(C)N5CCN(C(=O)CC(F)(F)F)CC5)ccn4)[nH]c3c2)n1 (racemic) [Example 26.02.01, (rac)-1-{4-[1-(2-{[6-(2-ethoxypyrimidin-4-yl)-1H-benzimidazol-2-yl]amino}pyridin-4-yl)ethyl]piperazin-1-yl}-3,3,3-trifluoropropan-1-one]
23 | 102 nM | Clc1ccccc1N1CCN(Cc2ccnc(Nc3nc4ccc(-c5nc(C6CC6)no5)cc4[nH]3)c2)CC1 [Example 17.07, N-(4-{[4-(2-chlorophenyl)piperazin-1-yl]methyl}pyridin-2-yl)-6-(3-cyclopropyl-1,2,4-oxadiazol-5-yl)-1H-benzimidazol-2-amine]
24 | 13 nM | O=C(C1CC1)N1CCN(Cc2ccnc(Nc3nc4ccc(-c5cc(OCC6(C(F)(F)F)CC6)ncn5)cc4[nH]3)c2)CC1 [Example 158.03, cyclopropyl{4-[(2-{[6-(6-{[1-(trifluoromethyl)cyclopropyl]methoxy}pyrimidin-4-yl)-1H-benzimidazol-2-yl]amino}pyridin-4-yl)methyl]piperazin-1-yl}methanone]

Row | Structure (SMILES) | IC50
25 | Cn1cc(-c2ccc3nc(Nc4cc(CN5CCN(C(=O)CC(F)(F)F)CC5)ccn4)[nH]c3c2)cn1 [Example 37.01, 3,3,3-trifluoro-1-{4-[(2-{[6-(1-methyl-1H-pyrazol-4-yl)-1H-benzimidazol-2-yl]amino}pyridin-4-yl)methyl]piperazin-1-yl}propan-1-one] | 55.3 nM
26 | CN(C)c1ncnc(-c2ccc3nc(Nc4cc(CN5CCN(C(=O)CC(F)(F)F)CC5)ccn4)[nH]c3c2)c1Cl [Example 179.02, 1-(4-{[2-({6-[5-chloro-6-(dimethylamino)pyrimidin-4-yl]-1H-benzimidazol-2-yl}amino)pyridin-4-yl]methyl}piperazin-1-yl)-3,3,3-trifluoropropan-1-one] | 1140 nM
